This test has as its system Immortalised Mouse Dermal Fibroblasts (MDFs). The experiment in a line: Inhibition of TSI induced necroptosis in mouse dermal fibroblasts (CellTitre-Glo). The note with it: Mus musculus, Fibroblast, 3 h, MDF cells, TSI cocktail (TNF, Smac mimetic, IDN-6556), read-out: Inhibition of TSI-induced necroptosis (IC50 cell-based assay) in MDF. In a few lines: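 Immortalised MDFs (2200 cells/well, DMEM + 7.4% FBS) pretreated 30 min with compound (36 μM top, 1:3, 10 points, 0.3% DMSO), then 3 h with TNF 100 ng/ml, Smac mimetic 500 nM and IDN-6556 10 μM at 37 °C. Viability by CellTiter-Glo luminescence; IC50 from 4-parameter logistic fit.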

Data on 21 compounds can be found in patent US20250059188A1, “ARYLSULPHONAMIDE COMPOUNDS” (Anaxis Pharma Pty Ltd, priority 2021, published 2025).

As to `C[C@H](Oc1cc(-c2nn(C)c3c(-c4cnn(C5CC6(C5)CN(C)C6)c4)cnc(N)c23)ccc1NS(=O)(=O)C(F)F)c1ccc(F)cc1` [Compound 99, (S)-N-(4-(4-amino-1-methyl-7-(1-(2-methyl-2-azaspiro[3.3]heptan-6-yl)-1H-pyrazol-4-yl)-1H-pyrazolo[4,3-c]pyridin-3-yl)-2-(1-(4-fluorophenyl)ethoxy)phenyl)-1,1-difluoromethanesulfonamide], the IC50 was in the range of 1000 to 10000 nM.
Then `COCCn1cc(-c2cnc(N)c3c(-c4ccc(NS(=O)(=O)C(F)F)c(O[C@@H](C)c5ccc(F)cc5)c4)nn(C)c23)cn1` [Compound 29, (S)-N-(4-(4-amino-7-(1-(2-methoxyethyl)-1H-pyrazol-4-yl)-1-methyl-1H-pyrazolo[4,3-c]pyridin-3-yl)-2-(1-(4-fluorophenyl)ethoxy)phenyl)-1,1-difluoromethanesulfonamide], with 1000 to 10000 nM; and `C[C@H](Oc1cc(-c2nn(C)c3c(-c4cnn(C5CCN(C)C(C)(C)C5)c4)cnc(N)c23)ccc1NS(=O)(=O)C(F)F)c1ccc(F)cc1` (single isomer, unassigned) [Compound 113], with 100 to 1000 nM; and `C[C@H](Oc1cc(-c2nn(C)c3c(-c4cnn(C5CCC(C)(C)N(C)C5)c4)cnc(N)c23)ccc1NS(=O)(=O)C(F)F)c1ccc(F)cc1` (stereo partly drawn) [Compound 104, N-(4-{4-amino-1-methyl-7-[1-(1,6,6-trimethylpiperidin-3-yl)-1H-pyrazol-4-yl]-1H-pyrazolo[4,3-c]pyridin-3-yl}-2-[(1 S)-1-(4-fluorophenyl)ethoxy]phenyl)-1,1-difluoromethanesulfonamide], with 100 to 1000 nM.
On to `CC1CN(C)CC(C)C1n1cc(-c2cnc(N)c3c(-c4ccc(NS(=O)(=O)C(F)F)c(O[C@@H](C)c5ccc(F)cc5)c4)nn(C)c23)cn1` (stereo partly drawn) [Compound 172, N-(4-{4-amino-1-methyl-7-[1-(1,3,5-trimethylpiperidin-4-yl)-1H-pyrazol-4-yl]-1H-pyrazolo[4,3-c]pyridin-3-yl}-2-[(1S)-1-(4-fluorophenyl)ethoxy]phenyl)-1,1-difluoromethanesulfonamide], for which the IC50 is less than 100 nM.
Then `C[C@H](Oc1cc(-c2nn(C)c3c(-c4cnn(C5CCN(CC(F)(F)F)C(C)(C)C5)c4)cnc(N)c23)ccc1NS(=O)(=O)C(F)F)c1ccc(F)cc1` (stereo partly drawn) [Compound 167, N-(4-(4-amino-7-(1-(2,2-dimethyl-1-(2,2,2-trifluoroethyl)piperidin-4-yl)-1H-pyrazol-4-yl)-1-methyl-1H-pyrazolo[4,3-c]pyridin-3-yl)-2-((S)-1-(4-fluorophenyl)ethoxy)phenyl)-1,1-difluoromethanesulfonamide], with less than 100 nM; and `C[C@H](Oc1cc(-c2nn(C)c3c(-c4cnn(C5CCN(C)C(C)(C)C5)c4)cnc(N)c23)ccc1NS(=O)(=O)C(F)F)c1ccc(Cl)cc1` (stereo partly drawn) [Compound 159, N-(4-(4-amino-1-methyl-7-(1-(1,2,2-trimethylpiperidin-4-yl)-1H-pyrazol-4-yl)-1H-pyrazolo[4,3-c]pyridin-3-yl)-2-((S)-1-(4-chlorophenyl)ethoxy)phenyl)-1,1-difluoromethanesulfonamide], with less than 100 nM; and `C[C@H](Oc1cc(-c2nn(C)c3c(-c4cnn(CCC(F)(F)F)c4)cnc(N)c23)ccc1NS(=O)(=O)C(F)F)c1ccc(F)cc1` [Compound 131, (S)-N-(4-(4-amino-1-methyl-7-(1-(3,3,3-trifluoropropyl)-1H-pyrazol-4-yl)-1H-pyrazolo[4,3-c]pyridin-3-yl)-2-(1-(4-fluorophenyl)ethoxy)phenyl)-1,1-difluoromethanesulfonamide], with 1000 to 10000 nM.
Regarding `C[C@H](Oc1cc(-c2nn(C)c3c(-c4cnn(C5CC(C)(C)N(C)C(C)(C)C5)c4)cnc(N)c23)ccc1NS(=O)(=O)C(F)F)c1ccc(F)cc1` [Compound 162, (S)-N-(4-(4-amino-1-methyl-7-(1-(1,2,2,6,6-pentamethylpiperidin-4-yl)-1H-pyrazol-4-yl)-1H-pyrazolo[4,3-c]pyridin-3-yl)-2-(1-(4-fluorophenyl)ethoxy)phenyl)-1,1-difluoromethanesulfonamide], the IC50 was less than 100 nM.
To `C[C@H](Oc1cc(-c2nn(C)c3c(-c4cnn(C5CC6CCC(C5)N6CC(F)(F)F)c4)cnc(N)c23)ccc1NS(=O)(=O)C(F)F)c1ccc(F)cc1` (stereo partly drawn) [Compound 153, N-(4-(4-amino-1-methyl-7-(1-(8-(2,2,2-trifluoroethyl)-8-azabicyclo[3.2.1]octan-3-yl)-1H-pyrazol-4-yl)-1H-pyrazolo[4,3-c]pyridin-3-yl)-2-((S)-1-(4-fluorophenyl)ethoxy)phenyl)-1,1-difluoromethanesulfonamide] belongs 100 to 1000 nM; to `C[C@@H](Oc1cc(-c2nn(C)c3c(-c4cnn(C5CCOCC5)c4)cnc(N)c23)ccc1NS(=O)(=O)C(F)F)c1ccc(F)cc1` [Compound 121, (R)-N-(4-(4-amino-1-methyl-7-(1-(tetrahydro-2H-pyran-4-yl)-1H-pyrazol-4-yl)-1H-pyrazolo[4,3-c]pyridin-3-yl)-2-(1-(4-fluorophenyl)ethoxy)phenyl)-1,1-difluoromethanesulfonamide], 1000 to 10000 nM.
Then `C[C@H](Oc1cc(-c2nn(C)c3c(-c4cnn(C5C[C@H]6CNC[C@H]6C5)c4)cnc(N)c23)ccc1NS(=O)(=O)C(F)F)c1ccc(F)cc1` (stereo partly drawn) [Compound 163, N-(4-(4-amino-1-methyl-7-(1-((3aR,6aS)-octahydrocyclopenta[c]pyrrol-5-yl)-1H-pyrazol-4-yl)-1H-pyrazolo[4,3-c]pyridin-3-yl)-2-((S)-1-(4-fluorophenyl)ethoxy)phenyl)-1,1-difluoromethanesulfonamide], with 1000 to 10000 nM; and `C[C@H](Oc1cc(-c2nn(C)c3c(-c4cnn(C5CCN(C)C6(CC6)C5)c4)cnc(N)c23)ccc1NS(=O)(=O)C(F)F)c1ccc(F)cc1` (stereo partly drawn) [Compound 145, N-(4-(4-amino-1-methyl-7-(1-(4-methyl-4-azaspiro[2.5]octan-7-yl)-1H-pyrazol-4-yl)-1H-pyrazolo[4,3-c]pyridin-3-yl)-2-((S)-1-(4-fluorophenyl)ethoxy)phenyl)-1,1-difluoromethanesulfonamide], with less than 100 nM; and `CC(n1cc(-c2cnc(N)c3c(-c4ccc(NS(=O)(=O)C(F)F)c(O[C@@H](C)c5ccc(F)cc5)c4)nn(C)c23)cn1)C(F)(F)F` (stereo partly drawn) [Compound 142, N-(4-(4-amino-1-methyl-7-(1-(1,1,1-trifluoropropan-2-yl)-1H-pyrazol-4-yl)-1H-pyrazolo[4,3-c]pyridin-3-yl)-2-((S)-1-(4-fluorophenyl)ethoxy)phenyl)-1,1-difluoromethanesulfonamide], with 1000 to 10000 nM.
To `Cc1c(-c2cnc(N)c3c(-c4ccc(NS(=O)(=O)C(F)F)c(O[C@@H](C)c5ccc(F)cc5)c4)nn(C)c23)cnn1C1CCN(C)C(C)(C)C1` (stereo partly drawn) [Compound 157, N-(4-(4-amino-1-methyl-7-(5-methyl-1-(1,2,2-trimethylpiperidin-4-yl)-1H-pyrazol-4-yl)-1H-pyrazolo[4,3-c]pyridin-3-yl)-2-((S)-1-(4-fluorophenyl)ethoxy)phenyl)-1,1-difluoromethanesulfonamide] belongs 1000 to 10000 nM; to `C[C@H](Oc1cc(-c2nn(C)c3c(-c4cnn(C5CCN(C)C(C)(C)C5)c4)cnc(N)c23)ccc1NS(=O)(=O)C(F)F)c1ccc(F)cc1` (single isomer, unassigned) [Compound 154, N-(4-(4-amino-1-methyl-7-(1-((R*)-1,2,2-trimethylpiperidin-4-yl)-1H-pyrazol-4-yl)-1H-pyrazolo[4,3-c]pyridin-3-yl)-2-((S)-1-(4-fluorophenyl)ethoxy)phenyl)-1,1-difluoromethanesulfonamide], less than 100 nM.
`C[C@H](Oc1cc(-c2nn(C)c3c(-c4cnn(C5CCN(C)C(C(F)(F)F)C5)c4)cnc(N)c23)ccc1NS(=O)(=O)C(F)F)c1ccc(F)cc1` (stereo partly drawn) [Compound 148, N-(4-(4-amino-1-methyl-7-(1-(1-methyl-2-(trifluoromethyl)piperidin-4-yl)-1H-pyrazol-4-yl)-1H-pyrazolo[4,3-c]pyridin-3-yl)-2-((S)-1-(4-fluorophenyl)ethoxy)phenyl)-1,1-difluoromethanesulfonamide]: the concentration for half-maximal inhibition (IC50) lay in the range of 100 to 1000 nM.
To `C[C@H](Oc1cc(-c2nn(C)c3c(C#CC4CCNCC4)cnc(N)c23)ccc1NS(=O)(=O)C(F)F)c1ccc(F)cc1` [Compound 79, (S)—N-(4-(4-amino-1-methyl-7-(piperidin-4-ylethynyl)-1H-pyrazolo[4,3-c]pyridin-3-yl)-2-(1-(4-fluorophenyl)ethoxy)phenyl)-1,1-difluoromethanesulfonamide] belongs 1000 to 10000 nM; to `CC(C)N(C)C(=O)C(C)n1cc(-c2cnc(N)c3c(-c4ccc(NS(=O)(=O)C(F)F)c(O[C@@H](C)c5ccc(F)cc5)c4)nn(C)c23)cn1` (stereo partly drawn) [Compound 81, 2-(4-(4-amino-3-(4-((difluoromethyl)sulfonamido)-3-((S)-1-(4-fluorophenyl)ethoxy)phenyl)-1-methyl-1H-pyrazolo[4,3-c]pyridin-7-yl)-1H-pyrazol-1-yl)-N-isopropyl-N-methylpropanamide], 1000 to 10000 nM.
In the case of `C[C@H](Oc1cc(-c2nn(C)c3c(-c4cnn(CC(F)(F)F)c4)cnc(N)c23)ccc1NS(=O)(=O)C(F)F)c1ccc(F)cc1` [Compound 116, (S)-N-(4-(4-amino-1-methyl-7-(1-(2,2,2-trifluoroethyl)-1H-pyrazol-4-yl)-1H-pyrazolo[4,3-c]pyridin-3-yl)-2-(1-(4-fluorophenyl)ethoxy)phenyl)-1,1-difluoromethanesulfonamide], the IC50 lay within 1000 to 10000 nM.
To `C[C@H](Oc1cc(-c2nn(C)c3c(-c4cnn(C5CCOCC5)c4)cnc(N)c23)ccc1NS(=O)(=O)C(F)F)c1cccc(Cl)c1` [Compound 122, (S)-N-(4-(4-amino-1-methyl-7-(1-(tetrahydro-2H-pyran-4-yl)-1H-pyrazol-4-yl)-1H-pyrazolo[4,3-c]pyridin-3-yl)-2-(1-(3-chlorophenyl)ethoxy)phenyl)-1,1-difluoromethanesulfonamide] belongs 1000 to 10000 nM.

Broadly, the IC50 is the concentration that gives 50% inhibition.
